SMILES strings stand for the structures.

Usually IC50 stands for the point on the concentration scale where inhibition reaches its midpoint.

The assay in a line: Antagonist activity at P2Y12 receptor in human platelet rich plasma assessed as inhibition of ADP-induced aggregation.
In the case of `CCCC(=O)c1cnn(-c2ccc(NC(=O)c3cn(CC(=O)N4CCN(C)CC4)c4ccc(OC)cc34)cc2)c1C`, the IC50 stood at 0.4 µM.

Turning to `CCCC(=O)c1cnn(-c2ccc(NC(=O)c3cn(CC(=O)N4CCN(C)CC4)c4ccc(Cl)cc34)cc2)c1C`, the half-maximal inhibitory concentration (IC50) amounted to 0.5 µM.

Take `CCCC(=O)c1cnn(-c2ccc(NC(=O)c3cn(CC(=O)N4CCN(C)CC4)c4cc(F)c(Cl)cc34)cc2)c1C`: the IC50 came to 0.5 µM.

As to `CCCC(=O)c1cnn(-c2ccc(NC(=O)c3cn(CC(=O)N4CCN(C)CC4)c4cc(C)c(Br)cc34)cc2)c1C`, the IC50 stood at 1.1 µM.

Take `CCCC(=O)c1cnn(-c2ccc(NC(=O)c3cn(CC(=O)N4CCN(C)CC4)c4ccc(C(F)(F)F)cc34)cc2)c1C`: the IC50 came out at 0.7 µM.

For the compound `CCCC(=O)c1cnn(-c2ccc(NC(=O)c3cn(CC(=O)N4CCN(C)CC4)c4cc(C)c(Cl)cc34)cc2)c1C`, the IC50 stood at 0.5 µM.

As to `CCCC(=O)c1cnn(-c2ccc(N(C)C(=O)c3cn(CC(=O)O)c4ccc(C)cc34)cc2)c1C`, the IC50 is more than 30 µM.

In the case of `CCCC(=O)c1cnn(-c2ccc(NC(=O)c3cn(CC(=O)N4CCN(C)CC4)c4ccc(C)cc34)cc2)c1C`, the IC50 is 0.5 µM.

With `CCCC(=O)c1cnn(-c2ccc(NC(=O)c3cn(CC(=O)N4CCN(CCOC)CC4)c4ccc(Cl)cc34)cc2)c1C`, the IC50 is 0.3 µM.

For `CCCC(=O)c1cnn(-c2ccc(NC(=O)c3cn(CC(=O)N4CCN(Cc5cc(C)on5)CC4)c4ccc(Cl)cc34)cc2)c1C`, the IC50 turned out to be 0.3 µM.

With `CCCC(=O)c1cnn(-c2ccc(NC(=O)c3cn(CC(=O)N4CCN5CCN(C)C(=O)C5C4)c4ccc(Cl)cc34)cc2)c1C` (configuration not stated), the IC50 stood at 0.3 µM.

Regarding `CCCC(=O)c1cnn(-c2ccc(NC(=O)c3cn(CC(=O)N4CCN(CCO)CC4)c4ccc(Cl)cc34)cc2)c1C`, the IC50 stood at 0.3 µM.

Take `CCCC(=O)c1cnn(-c2ccc(NC(=O)c3cn(CC(=O)N4CCN(CC(=O)N(C)C)CC4)c4ccc(Cl)cc34)cc2)c1C`: the IC50 is 0.4 µM.

Turning to `CCCC(=O)c1cnn(-c2ccc(NC(=O)c3cn(CCC(=O)O)c4ccc(C)cc34)cc2)c1C`, the IC50 was determined as 4 µM.

For `CCCC(=O)c1cnn(-c2ccc(NC(=O)c3cn(CC(=O)O)c4ccc(C)cc34)cc2)c1C`, the IC50 worked out at 1.8 µM.

As for `CCOC(=O)c1c(C)nn(-c2ccc(C(=O)NCc3ccccc3OC)cc2)c1C`, the IC50 came to 16.8 µM.

On to `CCCC(=O)c1cnn(-c2ccc(NC(=O)c3cn(CC(=O)O)c4ccc(C)c(C)c34)cc2)c1C`, for which the IC50 is more than 30 µM.

With `CCOC(=O)c1c(C)nn(-c2ccc(NC(=O)Nc3ccc(Cl)cc3)cc2)c1C`, the IC50 stood at 4.5 µM.

For the compound `CCCC(=O)c1cnn(-c2ccc(NC(=O)c3cn(CC(=O)O)c4cc(C)c(C)cc34)cc2)c1C`, the IC50 is 0.4 µM.

In the case of `CCCC(=O)c1cnn(-c2ccc(NC(=O)c3c(C)n(CC(=O)O)c4ccc(C)cc34)cc2)c1C`, the IC50 turned out to be 15 µM.

As for `CCCC(=O)c1cnn(-c2ccc(NC(=O)n3cc(CCCC(=O)O)c4ccc(C)cc43)cc2)c1C`, the IC50 was more than 30 µM.

Consider `CCCC(=O)c1cnn(-c2ccc(NC(=O)c3cn(CC(=O)N4CCN(C)CC4)c4cc(C)c(C)cc34)cc2)c1C`, for which the IC50 was determined as 0.5 µM.

With `CCCC(=O)c1cnn(-c2ccc(NC(=O)c3cn(CCCC(=O)O)c4ccc(C)cc34)cc2)c1C`, the IC50 worked out at 20 µM.

In the case of `CCOC(=O)c1c(C)nn(-c2ccc(NC(=O)Nc3ccccc3OCCCC(=O)O)cc2)c1C`, the IC50 is 13 µM.

As for `CCCC(=O)c1cnn(-c2ccc(NC(=O)c3cn(CC(=O)OC)c4ccc(C)cc34)cc2)c1C`, the IC50 was 4.1 µM.

Consider `CCCC(=O)c1cnn(-c2ccc(NC(=O)Nc3cc(C)ccc3OCCCC(=O)O)cc2)c1C`, for which the IC50 is more than 30 µM.

As to `CCCC(=O)c1cnn(-c2ccc(NC(=O)c3cn(CC(=O)N(C)C)c4cc(C)c(C)cc34)cc2)c1C`, the IC50 is 0.8 µM.

The values are drawn from BindingDB's records for doi:10.1021/jm500588w (Sanofi R & D, 2014).
